Measured values: patent US20250276962A1, “CONTRACEPTIVE COMPOUNDS AND METHODS” (Regents of the University of Minnesota, priority 2021, published 2025)
pIC50: −log10 of the molar value. Values joined by “and” are separate entries in the source; they are usually repeats but may differ in a detail not shown here. Equal entries are not always repeated. “Also recorded” adds a separate entry of the source. Where two headings read alike, the source gives them in different places.

Experiments:
[1] = biological target: Kir2.1 (potassium channel of excitable cells) (Homo sapiens, UniProt P63252); test: Off-target screening, Kir2.1; format: cell-based
Sequence of Kir2.1 (potassium channel of excitable cells) (P63252 whole entry): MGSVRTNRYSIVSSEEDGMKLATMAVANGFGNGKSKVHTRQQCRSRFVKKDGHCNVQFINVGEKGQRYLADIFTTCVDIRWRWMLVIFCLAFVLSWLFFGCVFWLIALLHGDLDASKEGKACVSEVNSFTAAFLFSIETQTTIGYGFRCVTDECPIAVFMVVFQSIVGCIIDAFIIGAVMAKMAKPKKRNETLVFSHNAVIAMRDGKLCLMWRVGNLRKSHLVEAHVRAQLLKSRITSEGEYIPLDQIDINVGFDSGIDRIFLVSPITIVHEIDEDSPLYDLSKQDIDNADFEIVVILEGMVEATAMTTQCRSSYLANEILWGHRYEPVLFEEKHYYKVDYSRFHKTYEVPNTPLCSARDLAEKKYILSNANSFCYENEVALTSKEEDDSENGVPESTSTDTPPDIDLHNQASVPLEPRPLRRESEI

[2] = test system: male Sprague-Dawley rats
[3] = in vitro; details: mouse hepatocytes
[4] = biological target: KVLQT(7.1)/mink (cardiac potassium ion channel) (Homo sapiens, UniProt P51787); test: Off-target screening, KVLQT(7.1)/mink; format: cell-based
Sequence of KVLQT(7.1)/mink (cardiac potassium ion channel) (P51787 whole entry): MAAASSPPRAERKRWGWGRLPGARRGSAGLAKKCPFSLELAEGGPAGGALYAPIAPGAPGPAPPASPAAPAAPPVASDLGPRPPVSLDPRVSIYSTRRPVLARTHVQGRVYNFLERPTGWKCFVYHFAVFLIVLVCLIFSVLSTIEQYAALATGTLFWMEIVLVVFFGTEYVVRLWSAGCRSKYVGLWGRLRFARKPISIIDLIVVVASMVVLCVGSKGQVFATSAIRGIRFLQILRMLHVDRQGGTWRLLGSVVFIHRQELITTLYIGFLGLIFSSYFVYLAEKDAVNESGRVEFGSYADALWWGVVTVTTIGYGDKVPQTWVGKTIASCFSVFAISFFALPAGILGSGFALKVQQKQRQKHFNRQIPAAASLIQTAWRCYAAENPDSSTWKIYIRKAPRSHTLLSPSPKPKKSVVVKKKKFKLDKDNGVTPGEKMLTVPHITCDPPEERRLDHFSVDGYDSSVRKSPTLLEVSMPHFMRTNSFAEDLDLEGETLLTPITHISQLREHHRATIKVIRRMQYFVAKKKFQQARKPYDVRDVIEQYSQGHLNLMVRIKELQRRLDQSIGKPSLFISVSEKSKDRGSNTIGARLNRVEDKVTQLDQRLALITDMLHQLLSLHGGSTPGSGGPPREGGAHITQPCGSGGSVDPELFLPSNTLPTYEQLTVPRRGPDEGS

[5] = Stability in monkey hepatocytes; format: in vitro ADME; details: read-out: Half-life (T1/2) Hepatocytes (Phase I and Phase II metabolism) (converted)
[6] = Stability in dog liver microsomes; format: in vitro ADME; details: read-out: Half-life (T1/2) Liver microsomes (Phase I metabolism)
[7] = test system: male Beagle dogs; test: Testis histopathology after 14-day dosing, dog; format: in vivo; details: daily doses for 14 days (25 mg/kg/day in FIG. 11)
Description: 2 male Beagle dogs and 5 male SD rats were dosed with 25 mg/kg/day for 14 days. On Day 15, animals were euthanized to harvest organs for histopathology. Shown are representative images. See Example 19.

[8] = Single dose PK, marmoset; format: in vivo; details: male, monkey, plasma, Marmoset 5 mg/kg
Description: NHP studies: Three young adult male marmosets received a single 5 mg/kg dose of the compound of Example land the compound of 3 sexually mature male cynomolgus macaques received a single dose of 0.5, 1, 5 and 10 mg/kg.

[9] = in vitro; details: human hepatocytes
[10] = Solubility in saline and 50% carbitol; format: physicochemical
[11] = test system: male Beagle dogs
[12] = Single dose toxicity, rat; details: Sprague-Dawley, in vivo, Maximum tolerated dose (MTD), Sprague-Dawley rats, highest dose level tested
[13] = Distribution assay, plasma levels after oral dosing; details: CD-1 mice, 10 mg/kg oral
Description: Testes and brain were then harvested. Resulting plasma and tissue were frozen at <−20° C. until analysis by LC/MS/MS.

[14] = not given; remark: listed apart in the source
[15] = Repeat dose PK (14 days), dog; format: in vivo; details: male, Beagle, plasma, oral, Day 14
Description: […]. In this study, AUC0-inf was measured.

[16] = test system: male cynomolgus macaques; test: Cynomolgus macaque study with sperm counts per ejaculate as readout; format: in vivo
Description: Sperm counts were assessed weekly or bi-weekly in fresh semen samples obtained with electroejaculation. 3 macaques were orally dosed with 2.5 mg/kg, which is the dose equivalent to 10 mg/kg in mouse based on body surface area. […] The animals are now in recovery to assess reversibility (data not shown). […] After dosing for another week at 7.5 mg/kg/day, individual sperm counts were 132, 38 and 12×10^6 showing efficacy in all 3 animals. Since day 38, the animals have been in recovery to assess reversibility. Four weeks after the animals received the last dose, individual sperm counts were 297, 71 and 300×10^6 showing 50% reversibility in animal #1, 65% reversibility in animal #2 and 100% reversibility in animal #3.

[17] = Single dose toxicity, dog; details: Beagle, in vivo, Maximum tolerated dose (MTD), Beagle dogs, highest dose level tested
[18] = Stability in monkey liver microsomes; format: in vitro ADME; details: read-out: Half-life (T1/2) Liver microsomes (Phase I metabolism) (converted)
[19] = physchem; details: pH 7.4
[20] = biological target: NaV1.5 (cardiac sodium ion channel) (Homo sapiens, UniProt Q14524); test: Off-target screening, NaV1.5; format: cell-based
[21] = biological target: NaV1.5 (Homo sapiens, UniProt Q14524); test: Off-target screening, NaV1.5; format: cell-based; details: 10 μM
[22] = biological target: acetylcholinesterase (AChE) (Homo sapiens, UniProt P22303); test: Off-target screening, AChE; format: biochemical
Sequence of acetylcholinesterase (AChE) (P22303 32-614, species assumed): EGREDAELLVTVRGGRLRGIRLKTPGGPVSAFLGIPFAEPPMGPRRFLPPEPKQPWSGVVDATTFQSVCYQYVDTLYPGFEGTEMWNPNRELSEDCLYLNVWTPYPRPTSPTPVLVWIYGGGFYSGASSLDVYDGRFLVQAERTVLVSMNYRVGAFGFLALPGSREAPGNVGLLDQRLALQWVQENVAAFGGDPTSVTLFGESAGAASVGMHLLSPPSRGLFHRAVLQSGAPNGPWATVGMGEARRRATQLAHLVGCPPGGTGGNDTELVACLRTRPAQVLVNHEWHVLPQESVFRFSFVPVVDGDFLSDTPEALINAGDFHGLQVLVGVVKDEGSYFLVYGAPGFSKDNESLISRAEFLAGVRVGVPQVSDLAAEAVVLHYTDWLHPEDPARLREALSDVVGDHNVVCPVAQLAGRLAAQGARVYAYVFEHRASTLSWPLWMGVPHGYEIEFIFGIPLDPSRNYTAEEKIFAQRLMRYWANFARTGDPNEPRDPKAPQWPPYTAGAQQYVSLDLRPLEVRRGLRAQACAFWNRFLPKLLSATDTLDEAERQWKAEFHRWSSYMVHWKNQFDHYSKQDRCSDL

[23] = biological target: hERG (Homo sapiens, UniProt Q12809); test: in vitro; details: human
Sequence of hERG (Q12809 whole entry): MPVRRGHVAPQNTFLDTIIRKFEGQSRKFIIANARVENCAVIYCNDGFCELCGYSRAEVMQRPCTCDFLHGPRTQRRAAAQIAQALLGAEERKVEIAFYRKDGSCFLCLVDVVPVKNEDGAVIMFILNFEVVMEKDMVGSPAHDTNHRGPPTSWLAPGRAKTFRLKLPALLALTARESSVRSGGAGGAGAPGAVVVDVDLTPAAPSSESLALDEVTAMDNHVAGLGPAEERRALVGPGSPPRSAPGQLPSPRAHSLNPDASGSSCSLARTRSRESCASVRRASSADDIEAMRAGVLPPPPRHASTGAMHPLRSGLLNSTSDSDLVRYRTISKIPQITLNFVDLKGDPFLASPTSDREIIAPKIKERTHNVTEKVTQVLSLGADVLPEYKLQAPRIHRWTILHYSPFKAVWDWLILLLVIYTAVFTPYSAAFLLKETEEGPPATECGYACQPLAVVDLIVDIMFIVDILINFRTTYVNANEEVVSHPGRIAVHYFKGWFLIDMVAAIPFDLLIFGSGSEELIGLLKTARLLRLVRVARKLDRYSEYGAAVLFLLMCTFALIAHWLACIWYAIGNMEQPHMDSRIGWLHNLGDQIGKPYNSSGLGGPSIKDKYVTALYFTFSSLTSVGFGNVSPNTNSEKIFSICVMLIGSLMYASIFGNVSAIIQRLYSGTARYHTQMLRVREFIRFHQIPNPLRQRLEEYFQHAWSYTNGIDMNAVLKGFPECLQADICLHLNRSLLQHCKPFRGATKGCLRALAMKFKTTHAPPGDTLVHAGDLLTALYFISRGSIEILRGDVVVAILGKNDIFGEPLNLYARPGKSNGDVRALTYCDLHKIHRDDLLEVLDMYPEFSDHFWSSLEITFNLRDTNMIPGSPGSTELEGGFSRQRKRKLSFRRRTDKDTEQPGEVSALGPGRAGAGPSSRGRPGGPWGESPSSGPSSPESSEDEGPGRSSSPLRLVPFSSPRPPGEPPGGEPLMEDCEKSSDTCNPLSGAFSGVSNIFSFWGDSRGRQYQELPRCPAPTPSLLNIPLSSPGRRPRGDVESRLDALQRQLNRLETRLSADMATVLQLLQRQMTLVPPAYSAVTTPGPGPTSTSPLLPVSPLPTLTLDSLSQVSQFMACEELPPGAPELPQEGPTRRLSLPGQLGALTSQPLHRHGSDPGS
Description: (§1) The potential inhibitory effect on human Ether-á-go-go related gene (hERG) channel was evaluated using a manual patch-clamp system. A HEK293 cell line stably transfected with hERG gene was employed.

[24] = biological target: human Ether-á-go-go related gene (hERG) channel (Homo sapiens, UniProt Q12809); test: cell-based
Sequence of human Ether-á-go-go related gene (hERG) channel (Q12809 whole entry): as above
Description: as §1

Q: Which results are given for Cc1ccc(C2=CC(C)(C)Oc3ccc(-c4ccc(-c5ccc(C(=O)[O-])cc5)[nH]4)cc32)cc1.[Na+] [Example 1, Sodium 4-(5-(2,2-dimethyl-4-(p-tolyl)-2H-chromen-6-yl)-1H-pyrrol-2-yl)benzoate]?
A: pIC50 [1]: < 5.00; inhibition at 10 µM ([1]; read-out: Inhibition of Kir2.1): 13.2%; Half-life (T1/2) Hepatocytes (Phase I and Phase II metabolism) (mouse): 4.8 h; In vitro Clint (μL/min/10^6 cells) (mouse hepatocytes): 4.79 μL/min/10^6 cells; In vitro T1/2 (mouse hepatocytes): 4.826 h; Safety margin ([2]; male, Sprague-Dawley, rat, in vivo, 14 days): at least 10 ×; Tolerability after dose reduction to 75 mg/kg ([2]; rat, in vivo): overall health and activity improved, they gained weight, and had normal CBC and clinical chemistry; Tolerability ([2]; rat, in vivo, 250 mg/kg/day): not tolerated; Tolerability ([2]; rat, in vivo, po, 25 mg/kg/day): tolerated well; Tolerability ([2]; rat, in vivo, po, 50 mg/kg/day): tolerated well; Tolerated dose on repeated dosing for 14 days ([2]; rats): 50 to 75 mg/kg; CLint scaled [3]: 56.5 mL/min/kg; inhibition at 10 µM [4]: 14.9%; half-life [5]: 3.2 h; half-life [6]: > 23.1 h; Testis histopathology [7]: degeneration of the germinal epithelium; also recorded: visible in all evaluated tubuli seminiferi contorti; also recorded: impairs the germinal epithelium; AUC(0-inf) [8]: 6.92 µg·h/mL; CLint scaled [9]: 6.75 mL/min/kg; solubility ([10]; 50% carbitol [2-(2-ethoxyethoxy)ethanol], aqueous with cosolvent or surfactant or cyclodextrin, in 50% carbitol [2-(2-ethoxyethoxy)ethanol, read-out: Solubility): > 100 mg/mL; solubility ([10]; saline, saline or isotonic, in saline, read-out: Solubility): ≤ 100 mg/mL; solubility ([10]; saline, saline or isotonic, saline, read-out: Solubility (saline)): 2 mg/mL; Tolerability ([11]; dog, in vivo, 50 mg/kg/day): not tolerated; Tolerability ([11]; dog, in vivo, 100 mg/kg/day): one dog did not show any signs of toxicity; Tolerability ([11]; dog, in vivo, po, 25 mg/kg/day): tolerated well; Tolerated dose on repeated dosing for 14 days ([11]; dogs): 25 mg/kg; Tolerability ([11]; male, Beagle, dog, in vivo, 100 mg/kg/day, 14 days): The other dog lost weight as of Day 12 until termination; Safety margin ([11]; male, Beagle, dog, in vivo, 14 days): at least 10 ×; MTD [12]: 750 mg/kg; Plasma level at 48 hours [13]: 12.9 nM; Half-life (T1/2) Liver microsomes (Phase I metabolism) ([14]; human): 9.5 h; CLint (μL/min/mg protein) ([14]; pooled human liver microsomes): 2.43 μL/min/mg protein; T1/2 ([14]; pooled human liver microsomes): 9.494 h; AUC(0-inf) ([15]; Dog 25 mg/kg/day): 752 µg·h/mL; AUC(0-inf) ([15]; Dog 100 mg/kg/day): 14100 µg·h/mL; Individual sperm counts per ejaculate ([16]; second cohort (initial 598, 203 and 277), 5 mg/kg/day, after 14 days, 5 mg/kg/day): 377 ×10^6 and 62 ×10^6 and 134 ×10^6; Individual sperm counts per ejaculate ([16]; second cohort, 5 mg/kg/day, after 30 days, 5 mg/kg/day): 262 ×10^6 and 28 ×10^6 and 70 ×10^6; Individual sperm counts per ejaculate ([16]; second cohort, four weeks after the last dose): 297 ×10^6 and 71 ×10^6 and 300 ×10^6; Reversibility of sperm count reduction ([16]; second cohort, four weeks after the last dose, animal #1, #2, #3): 50% and 65% and 100%; MTD [17]: > 500 mg/kg; half-life [18]: 23.1 h; logD [19]: 3.5; pIC50 [20]: 5.06; inhibition at 10 µM [21]: 37.4%; pIC50 [22]: < 4.52; inhibition at 10 µM ([22]; 10 μM): 10.2%; inhibition at 3.33 µM ([23]; % of hERG inhibition Cell 1, 3.33 μM): 6.99%; inhibition at 10 µM ([23]; % of hERG inhibition Cell 1, 10.00 μM): 19.5%; inhibition at 30 µM ([23]; % of hERG inhibition Cell 1, 30.00 μM): 35.9%; inhibition at 3.33 µM ([23]; % of hERG inhibition Cell 2, 3.33 μM): 16.4%; inhibition at 10 µM ([23]; % of hERG inhibition Cell 2, 10.00 μM): 20.2%; inhibition at 30 µM ([23]; % of hERG inhibition Cell 2, 30.00 μM): 43.2%; inhibition at 3.33 µM ([23]; Average % of hERG inhibition, 3.33 μM): 11.7%; inhibition at 10 µM ([23]; Average % of hERG inhibition, 10.00 μM): 19.9%; pIC50 [24]: < 4.52; hERG inhibitor ranking ([24]; human): The compound of Example lis not considered an hERG inhibitor. The IC50 in hERG-; pIC50 ([24]; read-out: hERG IC50, hERG-transfected HEK293 cells): < 4.52; pIC50 ([24]; read-out: hERG IC50, hERG-transfected HEK293 cells, patch clamp): < 4.52
